The experiment deals with T1, human recombinant ASK1 (Homo sapiens, UniProt Q99683).
T1 sequence (Q99683 1-1374): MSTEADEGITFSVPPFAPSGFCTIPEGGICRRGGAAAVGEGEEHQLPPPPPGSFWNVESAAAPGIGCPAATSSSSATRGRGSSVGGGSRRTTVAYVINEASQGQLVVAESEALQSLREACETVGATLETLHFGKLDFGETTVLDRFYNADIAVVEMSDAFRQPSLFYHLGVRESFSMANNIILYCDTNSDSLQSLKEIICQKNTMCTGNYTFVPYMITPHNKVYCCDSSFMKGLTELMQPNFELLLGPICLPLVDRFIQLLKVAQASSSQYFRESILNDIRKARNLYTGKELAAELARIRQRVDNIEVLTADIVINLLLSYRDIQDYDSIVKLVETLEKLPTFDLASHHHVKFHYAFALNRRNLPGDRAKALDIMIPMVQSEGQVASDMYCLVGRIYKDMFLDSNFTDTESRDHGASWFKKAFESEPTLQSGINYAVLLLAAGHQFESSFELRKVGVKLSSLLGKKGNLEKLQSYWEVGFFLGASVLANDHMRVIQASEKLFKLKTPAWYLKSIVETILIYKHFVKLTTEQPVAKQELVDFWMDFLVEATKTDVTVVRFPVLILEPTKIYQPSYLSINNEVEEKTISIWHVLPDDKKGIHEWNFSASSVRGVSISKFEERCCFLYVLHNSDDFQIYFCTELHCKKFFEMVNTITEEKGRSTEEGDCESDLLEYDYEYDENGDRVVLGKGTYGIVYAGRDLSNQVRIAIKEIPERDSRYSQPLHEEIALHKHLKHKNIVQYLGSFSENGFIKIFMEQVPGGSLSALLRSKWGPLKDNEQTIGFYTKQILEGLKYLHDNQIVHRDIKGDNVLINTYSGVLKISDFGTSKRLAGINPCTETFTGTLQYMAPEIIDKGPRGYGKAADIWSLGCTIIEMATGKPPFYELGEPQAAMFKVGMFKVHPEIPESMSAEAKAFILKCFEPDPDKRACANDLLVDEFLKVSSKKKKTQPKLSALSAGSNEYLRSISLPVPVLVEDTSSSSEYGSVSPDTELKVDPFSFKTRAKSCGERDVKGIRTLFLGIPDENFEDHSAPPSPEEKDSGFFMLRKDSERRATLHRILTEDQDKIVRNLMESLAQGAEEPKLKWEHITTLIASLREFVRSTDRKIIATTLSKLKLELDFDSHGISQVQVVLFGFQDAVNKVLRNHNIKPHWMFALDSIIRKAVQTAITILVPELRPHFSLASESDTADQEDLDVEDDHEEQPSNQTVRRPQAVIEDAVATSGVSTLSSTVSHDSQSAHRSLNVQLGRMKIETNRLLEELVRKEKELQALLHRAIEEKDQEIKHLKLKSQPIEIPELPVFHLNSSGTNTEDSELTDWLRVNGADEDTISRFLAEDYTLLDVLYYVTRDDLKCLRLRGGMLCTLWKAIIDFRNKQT
Kind of experiment: Enzyme inhibition assay (in vitro ASK1 assay), luciferase-based measurement of remaining ATP. The settings on record: human recombinant ASK1, MBP and ATP as substrates, 180 minutes at 30° C.; triplicates on at least 2 separate occasions. The experiment is classed as biochemical. As to the method: Assays were performed in a 384 well plate (Corning, #3654) format, using the human recombinant ASK1 as an enzyme and MBP (myelin basic protein, Upstate/Millipore, #13-104) with ATP as substrates. Assay read out was the measurement of the amount of ATP remaining after stopping the reaction, using a luciferase-based kit from Cambrex.
Compounds to be tested were dissolved in 100% DMSO at a concentration of 10 mM. Subsequent dilutions were performed in 100% DMSO using a Biomek FX Workstation. 5 μL of diluted compound or vehicle (6% DMSO) was distributed to a 384 well plate. 5 μL of substrates (ATP 7.5 μM, MBP 450 ng/μL) diluted in ASK1 buffer (20 mM Tris HCl pH 7.4, 0.001% Brij35, 0.01% BSA, 5 mM MgCl2, 1 mM DL-Dithiothreitol) were added, followed by 5 μL at of human recombinant ASK1 enzyme (22.5 ng/mL) diluted in ASK1 buffer in order to start the reaction. The reaction ran for 180 minutes at 30° C. before the addition of 5 μL of stop solution (Cambrex, #LT23-231). 10 μL of Pklight ATP detection reagent (Cambrex #LT23-233) were added. After 120 min of incubation, luminescence was measured on a Perkin-Elmer Victor 2 spectrofluorimeter. The percentage of inhibition relative to the fluorescence observed in the presence of solvent (1% DMSO) alone was determined. The IC50 values for inhibition were determined in triplicates on at least 2 separate occasions.
One may read the IC50 as the concentration needed to halve the response being measured. For the compound `O=C(Nc1nc2cc(Cl)cc(NC3CCC3)n2n1)c1cccnc1` [Example 118, N-[7-chloro-5-(cyclobutylamino)[1,2,4]triazolo[1,5-a]pyridin-2-yl]nicotinamide], the IC50 was 87 ± 6 nM.

As to `O=C(Nc1nc2cccc(NCc3ccco3)n2n1)c1ccccc1` [Example 44, N-{5-[(2-furylmethyl)amino][1,2,4]triazolo[1,5-a]pyridin-2-yl}benzamide], the IC50 came out at 6900 ± 50 nM. For `COc1cc(-c2ccc3nc(NC(=O)c4ccc(CN5CCCCC5)cc4)nn3c2)ccc1O` [Example 144, N-[6-(4-hydroxy-3-methoxyphenyl)[1,2,4]triazolo[1,5-a]pyridin-2-yl]-4-(piperidin-1-ylmethyl)benzamide] the value was 2000 nM; for `COC(=O)[C@H]1CC[C@H](Nc2cc(C(F)(F)F)cc3nc(NC(=O)c4cccnc4)nn23)CC1` [Example 90, methyl trans-4-{[2-[(pyridin-3-ylcarbonyl)amino]-7-(trifluoromethyl)[1,2,4]triazolo[1,5-a]pyridin-5-yl]amino}cyclohexanecarboxylate], 700 ± 100 nM; for `CCC(C)Nc1cc(C(F)(F)F)cc2nc(NC(=O)c3cccnc3)nn12` (stereo not drawn) [Example 100, N-[5-(sec-butylamino)-7-(trifluoromethyl)[1,2,4]triazolo[1,5-a]pyridin-2-yl]nicotinamide], 56 ± 8 nM.

As to `O=C(Nc1nc2cccc(NC3CCCOC3)n2n1)c1ccccc1` (stereo not drawn) [Example 81, N-[5-(tetrahydro-2H-pyran-3-ylamino)[1,2,4]triazolo[1,5-a]pyridin-2-yl]benzamide], the IC50 amounted to 1660 ± 50 nM. For `COCCN(C)Cc1ccc(C(=O)Nc2nc3cccc(NC4CCCCC4)n3n2)cc1` [Example 130, N-[5-(cyclohexylamino)[1,2,4]triazolo[1,5-a]pyridin-2-yl]-4-{[(2-methoxyethyl)(methyl)amino]methyl}benzamide] the value was 531 ± 18 nM; for `O=C(Nc1nc2cc(C(F)(F)F)cc(NC3CCCCC3)n2n1)c1cccnc1` [Example 74, N-[5-(cyclohexylamino)-7-(trifluoromethyl)[1,2,4]triazolo[1,5-a]pyridin-2-yl]nicotinamide], 120 ± 10 nM. The value for `O=C(Nc1nc2cccc(-c3ccoc3)n2n1)c1ccc(C(F)(F)F)cc1` [Example 3, N-[5-(3-furyl)[1,2,4]triazolo[1,5-a]pyridin-2-yl]-4-(trifluoromethyl)benzamide] was 8000 ± 400 nM; that for `COc1cc(-c2ccc3nc(NC(=O)c4ccc(CN(C)C)cc4)nn3c2)ccc1O` [Example 147, 4-[(dimethylamino)methyl]-N-[6-(4-hydroxy-3-methoxyphenyl)[1,2,4]triazolo[1,5-a]pyridin-2-yl]benzamide] was 5500 nM; that for `O=C(Nc1nc2cc(C(F)(F)F)cc(NCC3CC3)n2n1)c1cccnc1` [Example 89, N-[5-[(cyclopropylmethyl)amino]-7-(trifluoromethyl)[1,2,4]triazolo[1,5-a]pyridin-2-yl]nicotinamide] was 460 ± 50 nM. The value for `COC(=O)CCC(=O)Nc1nc2cccc(-c3ccoc3)n2n1` [Example 7, methyl 4-{[5-(3-furyl)[1,2,4]triazolo[1,5-a]pyridin-2-yl]amino}-4-oxobutanoate] was 7000 ± 1000 nM; that for `O=C(Nc1nc2cc(C(F)(F)F)cc(NCCCO)n2n1)c1cccnc1` [Example 124, N-[5-[(3-hydroxypropyl)amino]-7-(trifluoromethyl)[1,2,4]triazolo[1,5-a]pyridin-2-yl]nicotinamide] was 197 ± 6 nM. As for `O=C(CCNC(=O)c1ccccc1)Nc1nc2cccc(-c3ccoc3)n2n1` [Example 96, N-(3-{[5-(3-furyl)[1,2,4]triazolo[1,5-a]pyridin-2-yl]amino}-3-oxopropyl)benzamide], the IC50 was found to be 990 ± 110 nM. Consider `O=C(Nc1nc2cccc(SC3CCCCC3)n2n1)c1cccnc1` [Example 83, N-[5-(cyclohexylthio)[1,2,4]triazolo[1,5-a]pyridin-2-yl]nicotinamide], for which the IC50 amounted to 1900 ± 200 nM.
